In ChEMBL document CHEMBL1132859, “Role of the hydrophobic moiety of tumor promoters. Synthesis and activity of 2-alkylated benzolactams” (Bioorg Med Chem Lett, 2000):

Experiments:
[1] = target: Protein kinase C delta type (Homo sapiens, UniProt Q05655); assay: Binding affinity for human recombinant protein kinase C delta
HL-60 = assay: Compound was evaluated for its effective dose against HL-60 cells; assay type: functional; conditions: Homo sapiens, read-out: ED50 (the source's name)

Chain of Protein kinase C delta type (Q05655 whole entry): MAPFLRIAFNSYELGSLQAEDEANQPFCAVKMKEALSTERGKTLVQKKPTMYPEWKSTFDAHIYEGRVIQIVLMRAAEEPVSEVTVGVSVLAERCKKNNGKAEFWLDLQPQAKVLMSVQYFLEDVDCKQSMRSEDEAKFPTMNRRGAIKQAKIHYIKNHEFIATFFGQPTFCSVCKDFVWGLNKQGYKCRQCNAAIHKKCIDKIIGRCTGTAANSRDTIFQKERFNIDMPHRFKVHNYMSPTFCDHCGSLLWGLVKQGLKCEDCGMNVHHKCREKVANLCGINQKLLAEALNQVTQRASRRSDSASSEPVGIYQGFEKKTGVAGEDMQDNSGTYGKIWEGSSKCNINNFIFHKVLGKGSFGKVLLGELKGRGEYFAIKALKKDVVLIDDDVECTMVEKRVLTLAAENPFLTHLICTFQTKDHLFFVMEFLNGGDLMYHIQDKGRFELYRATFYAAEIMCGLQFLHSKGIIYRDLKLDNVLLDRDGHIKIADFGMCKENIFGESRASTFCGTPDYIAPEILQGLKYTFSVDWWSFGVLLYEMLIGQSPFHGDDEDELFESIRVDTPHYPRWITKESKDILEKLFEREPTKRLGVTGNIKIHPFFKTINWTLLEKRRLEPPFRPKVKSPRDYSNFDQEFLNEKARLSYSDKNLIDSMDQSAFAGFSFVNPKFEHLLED

Row | SMILES | Ki [1] | EC50 (HL-60)
1 | CCCCCCCCCC[C@H]1C(=O)N[C@H](CO)Cc2ccccc2N1C | 0.8 nM | –
2 | CCCCCCCCCCCC[C@H]1C(=O)N[C@H](CO)Cc2ccccc2N1C | 0.8 nM | –
3 | CCCCCCCCCCCCCC[C@H]1C(=O)N[C@H](CO)Cc2ccccc2N1C | 0.8 nM | –
4 | CCCCCCCCCCCCCCCCCCCC[C@H]1C(=O)N[C@H](CO)Cc2ccccc2N1C | > 1000 nM | 70 nM
